Source: patent US7258861B2, “TNF-derived peptides for use in treating oedema” (Innogenetics N.V., priority 2001, dated 2007)

Assay: Chloride efflux from SPQ-containing liposomes
Conditions: 100% EPG liposomes, pH 6.1, 3 μg/ml
Description: Preparation of liposomes. Large unilamellar liposomes were prepared by reverse phase evaporation as previously described (Vecsey-Semjen et al., 1996). Liposomes were prepared of either 100% egg phosphatidylglycerol (EPG) or a mixture of EPC and EPG (1:1 W/W) in a buffer containing 100 mM KCl, 20 mM N-[2-Hydroxyethyl]piperazine-N′-[2-ethane-sulfonic acid] (HEPES), pH 7.4 and 1.5 mg/ml of 6-methoxy-N-(3-sulfopropyl)quinolinium (SPQ).
Choride efflux measurements. All fluorescence experiments were carried out using a PTI spectrofluorometer equipped with a thermostated cell holder (37° C.). The dye was excited at 350 nm and emission was recorded at 422 nm, both excitation and emission band widths were set to 5 nm. Liposomes were diluted to a final concentration of 50 μg/ml in a solution containing 100 mM KNO3 and 20 mM MES pH 6.1 or 20 mM HEPES, pH 7.4. Wild type and mutant TNF were added to a final concentration of 3 μg/ml.

For “TNF: E.coli-derived recombinant murine TNF”, the “chloride efflux (SPQ fluorescence)” value was “induced chloride efflux”.
